Results: patent publication US20220324796A1, “ANTIBIOTIC COMPOUNDS” (The General Hospital Corporation, priority 2019, published 2022)
In brackets after ≈: the same amount, converted by molar mass.

Legend:
MRSA BF2 = assay: MIC assay (micro-dilution); format: cell-based, S. aureus; conditions: Staphylococcus aureus
Procedure: (§1) Minimal inhibitory concentration (MIC) assay. The MICs of antibiotics were determined by the standard micro-dilution method recommended by the Clinical and Laboratory Standards Institute. MIC assays were conducted in biological triplicate.
Antimicrobial activity of each analog was tested against four MRSA strains (MW2, BF1, BF2, and BF3), Pseudomonas aeruginosa (PA14), Klebsiella pneumonia (WGLW2), and Acinetobacter baumannii (ATCC 17978).

[1] = Giant unilamellar vesicles (GUVs) assay, bacterial mimetic
Procedure: (§2) Giant unilamellar vesicles (GUVs) assay. GUVs were prepared by slightly modifying the electroformation method described previously. 1,2-dioleoyl-sn-glycero-3-phosphocholine (DOPC), 1,2-dioleoyl-sn-glycero-3-phospho-(1′-rac-glycerol) (DOPG), 1-palmitoyl-2-oleoyl-glycero-3-phosphocholine (POPC), cholesterol (ovine wool) and 1,2-dioleoyl-sn-glycero-3-phosphoethanolamine-N-(lissamine rhodamine B sulfonyl) (18:1 Liss Rhod PE) were purchased from Avanti Polar Lipids (Alabaster, Ala., USA). 4 mM lipid mixtures consisting of DOPC/DOPG/18:1 Liss Rhod PE (7:3:0.005) and POPC/cholesterol/18:1 Liss Rhod PE (7:3:0.005) were dissolved in chloroform respectively. Same procedure was used to prepare both kinds of GUVs. Indium tin oxide (ITO)-coated slides (50×75×1.1 mm, Delta Technologies, Loveland, Colo., USA) were coated with […] of the lipid mixture and dried in a vacuum chamber for 2 h to remove chloroform. An electroformation chamber was made by placing a 2 mm thick Teflon spacer between the two lipid-coated ITO slides. […] After adding 1 μl of compound solution to a well (final compound concentration: 1× MIC), the GUVs were observed and imaged with an optical microscope equipped with fluorescence contrast and a digital camera (63x objectives, Axio Observer. A1 & AxioCam MRm, Zeiss, Germany). […]

[2] = system: exponential phase MRSA MW2 cells; assay: Cell lysis by optical density; format: cell-based, S. aureus; conditions: 10 μg/mL, 4 h
MRSA MW2 cells = assay: Bacterial membrane permeability assay (SYTOX Green); format: cell-based, S. aureus
Procedure: Bacterial membrane permeability assay. Exponential-phase or stationary-phase S. aureus MW2 cells prepared as described above under Killing kinetics assay and Persister killing assay, respectively, were washed 3 times with the same volume of PBS. The washed cells were adjusted to OD600=0.4 with PBS. SYTOX Green (Molecular Probes, Waltham, Mass., USA) was added to 10 mL of the diluted bacterial suspension to a final concentration of 5 μM and incubated for 30 min at room temperature in the dark. 50 μl of the bacterial/SYTOX Green suspension was mixed with 50 μl of phosphate buffered saline (PBS) containing twice the desired concentrations of compounds in black, clear-bottom, 96-well plates (Corning no. 3904). Fluorescence was measured at room temperature using a spectrophotometer (SpectraMax M2, Molecular Devices) with excitation and emission wavelengths of 485 nm and 525 nm, respectively. All experiments were conducted in biological triplicate.

[3] = system: VRSA strain VRS1 persisters; assay: Persister killing assay; format: cell-based, S. aureus; conditions: linezolid and daptomycin at 100× MIC; bithionol at indicated concentrations (FIG. 1E)
Procedure: (§3) Persister killing assay. […] Persister cells of MRSA MW2 or VRSA VRS1 were prepared by growing cultures overnight to stationary phase at 37° C. at 200 rpm and washing three times with PBS. 1 mL of ˜1×10^8 CFU/mL MRSA persisters was added to 1 mL of PBS containing a 2-fold higher concentration of the desired concentration of antibiotics in a 96-well assay block (Corning Costar 3960). For assays with daptomycin, PBS was supplemented with 50 μg/mL CaCl2. The assay block was incubated at 37° C. with shaking at 200 rpm. At various times, 400 μl samples were removed, washed once with PBS, serially diluted and spot-plated on TSA plates. Colonies were counted after overnight incubation at 37° C. to determine the titer of live cells. These experiments were conducted in triplicate.

[4] = system: stationary-phase MRSA MW2 persisters; assay: Persister killing assay; format: cell-based, S. aureus
Procedure: as §3

[5] = system: daptomycin-intermediate or-resistant Enterococcal strains; assay: MIC assay, Enterococcal strains; format: cell-based; conditions: Enterococcus; range over several daptomycin-intermediate or -resistant Enterococcal strains
Procedure: Bacterial strains and growth conditions. S. aureus strains were grown in tryptic soy broth (TSB) (BD, Franklin Lakes, N.J., USA). E. faecium and E. faecalis strains were grown in brain-heart infusion (BHI) broth (BD, Franklin Lakes, N.J., USA), and four Gram-negative species, Klebsiella pneumoniae, Acinetobacter baumannii, Pseudomonas aeruginosa, and Enterobacter aerogenes were grown in Luria Bertani (LB) broth (BD, Franklin Lakes, N.J., USA). All bacteria were grown at 37° C. at 200 r.p.m.
as §1

[6] = Giant unilamellar vesicles (GUVs) assay, mammalian mimetic
Procedure: as §2

human erythrocytes = conditions: 1 h
[7] = system: Gram-negative bacteria including Escherichia coli and Shigella dysenteriae; conditions: previously described; cited from earlier work
[8] = system: MRSA strain MW2 persisters; assay: Deep-seated mouse thigh infection model, bacterial load; format: in vivo; conditions: 30 mg/kg each agent, every 12 h for 3 days from 24 h post-infection
Procedure: Deep-seated mouse thigh infection model. […] Mice were euthanized at 96 h post-infection. […] Thighs were homogenized in PBS, serially diluted with PBS, and spot-plated on TSA plates.

Oc1c(Cl)cc(Cl)cc1Sc1cc(Cl)cc(Cl)c1O [bithionol, 6,6′-thio-bis-(2,4-dichlorophenol)]
MIC (MRSA BF2): 0.5 µg/mL (≈ 1.4 µM) | effect on DOPC/DOPG GUVs ([1]; 1 μg/mL): Lipid aggregates formed on the surfaces of the GUVs | effect on DOPC/DOPG GUVs ([1]; 10 μg/mL): the GUVs burst | optical density of S. aureus cells (bacteriolytic activity) [2]: time-dependent decrease in optical density | SYTOX Green membrane permeabilization (MRSA MW2 cells; MRSA MW2 exponential-phase cells and/or persisters, in words): dose-dependent membrane permeability | concentration at which SYTOX Green fluorescence intensity was maximized (MRSA MW2 cells; decreased above 8 μg/mL): 4 µg/mL | activity against VRSA VRS1 persisters [3]: highly efficacious at eradicating | time to complete eradication of stationary-phase MRSA persisters ([4]; 32 μg/mL (32× MIC)): ≤ 2 h | concentration required to completely eradicate stationary-phase MRSA persisters ([4]; 5×10^7 CFU/mL MRSA MW2 persisters): 32 µg/mL | concentrations exhibiting significant killing activity against MRSA MW2 persisters ([4]; FIG. 1C): > 16 µg/mL | viability of MRSA persisters ([4]; bithionol 8 μg/mL alone (FIGS. 1C, D)): do not lead to a significant decrease in the viability | MIC [5]: 0.5 to 2 µg/mL (≈ 1.4 to 5.62 µM) | effect on 7POPC/3 cholesterol GUVs [6]: did not cause observable effects | HC50 (human erythrocytes): > 64 µg/mL | MIC [7]: > 100 µg/mL | effect on MRSA CFUs in the mouse thigh [8]: no effect
